From the OligoGym collection
HELM strings list units from the 5' end as sugar, base in round brackets, then linkage (d deoxyribose, r ribose, m 2'-O-methyl, p phosphodiester). Strings are as the collection lists them; they lack the last nucleoside at the 3' end of the tested compound. [moe] = 2'-O-(2-methoxyethyl) (MOE); [sp] = phosphorothioate linkage; [m5C] = 5-methylcytosine

target: UBE3A-ATS; test: mouse, dose not given; conditions: ASO

Substance | 3 h FOB score [score 0-7]
RNA1{[moe](T)[sp].[moe](G)p.[moe](A)p.[moe](G)p.[moe]([m5C])p.[moe](T)p.d(A)[sp].d(T)[sp].d([m5C])[sp].d(T)[sp].d(G)[sp].d(T)[sp].d(A)[sp].d([m5C])[sp].d(A)[sp].d(A)[sp].[moe](A)p.[moe](A)[sp].[moe](T)}$$$$ (last 3' nucleoside missing) | 5.3
RNA1{[moe](T)[sp].[moe](G)p.[moe](A)p.[moe](G)p.[moe]([m5C])p.d(T)[sp].d(A)[sp].d(T)[sp].d([m5C])[sp].d(T)[sp].d(G)[sp].d(T)[sp].d(A)[sp].d([m5C])[sp].d(A)[sp].[moe](A)p.[moe](A)p.[moe](A)[sp].[moe](T)}$$$$ (last 3' nucleoside missing) | 6.2
RNA1{[moe](T)[sp].[moe](G)p.[moe](A)p.[moe](G)p.d([m5C])[sp].d(T)[sp].d(A)[sp].d(T)[sp].d([m5C])[sp].d(T)[sp].d(G)[sp].d(T)[sp].d(A)[sp].d([m5C])[sp].[moe](A)p.[moe](A)p.[moe](A)p.[moe](A)[sp].[moe](T)}$$$$ (last 3' nucleoside missing) | 5.5
RNA1{[moe](T)[sp].[moe](G)p.[moe](A)p.[moe](T)[sp].d([m5C])[sp].d(A)[sp].d([m5C])[sp].d(A)[sp].d(T)[sp].d(T)[sp].d(A)[sp].d([m5C])[sp].[moe]([m5C])p.[moe]([m5C])p.[moe](A)p.[moe](T)[sp].[moe]([m5C])}$$$$ (last 3' nucleoside missing) | 0
RNA1{[moe](T)[sp].[moe](G)p.[moe](A)p.[moe](T)p.[moe](A)p.d(G)[sp].d(A)[sp].d(T)[sp].d(A)[sp].d([m5C])[sp].d(T)[sp].d(T)[sp].d(G)[sp].d(T)[sp].d(A)[sp].[moe](T)p.[moe](T)p.[moe](A)[sp].[moe](G)}$$$$ (last 3' nucleoside missing) | 3.8
RNA1{[moe](T)[sp].[moe](G)p.[moe](A)p.[moe](T)p.[moe]([m5C])[sp].d(A)[sp].d([m5C])[sp].d(A)[sp].d(T)[sp].d(T)[sp].d(A)[sp].d([m5C])[sp].d([m5C])[sp].[moe]([m5C])p.[moe](A)p.[moe](T)[sp].[moe]([m5C])}$$$$ (last 3' nucleoside missing) | 1
RNA1{[moe](T)[sp].[moe](G)p.[moe](A)p.[moe](T)p.[moe]([m5C])p.[moe](A)[sp].d([m5C])[sp].d(A)[sp].d(T)[sp].d(T)[sp].d(A)[sp].d([m5C])[sp].d([m5C])[sp].d([m5C])[sp].[moe](A)p.[moe](T)[sp].[moe]([m5C])}$$$$ (last 3' nucleoside missing) | 0
RNA1{[moe](T)[sp].[moe](G)p.[moe](A)p.[moe](T)p.[moe]([m5C])p.[moe](A)p.d([m5C])[sp].d(A)[sp].d(T)[sp].d(T)[sp].d(A)[sp].d([m5C])[sp].d([m5C])[sp].d([m5C])[sp].d(A)[sp].d(T)[sp].[moe]([m5C])p.[moe]([m5C])[sp].[moe](G)}$$$$ (last 3' nucleoside missing) | 0
RNA1{[moe](T)[sp].[moe](G)p.[moe](A)p.[moe](T)p.[moe]([m5C])p.d(A)[sp].d([m5C])[sp].d(A)[sp].d(T)[sp].d(T)[sp].d(A)[sp].d([m5C])[sp].d([m5C])[sp].d([m5C])[sp].d(A)[sp].[moe](T)p.[moe]([m5C])p.[moe]([m5C])[sp].[moe](G)}$$$$ (last 3' nucleoside missing) | 0
RNA1{[moe](T)[sp].[moe](G)p.[moe](A)p.[moe](T)p.[moe]([m5C])p.d(T)[sp].d(A)[sp].d(T)[sp].d(T)[sp].d(A)[sp].d(T)[sp].d(G)[sp].d(A)[sp].d(G)[sp].d(G)[sp].[moe](G)p.[moe]([m5C])p.[moe](A)[sp].[moe](T)}$$$$ (last 3' nucleoside missing) | 2
RNA1{[moe](T)[sp].[moe](G)p.[moe](A)p.[moe](T)p.d([m5C])[sp].d(A)[sp].d([m5C])[sp].d(A)[sp].d(T)[sp].d(T)[sp].d(A)[sp].d([m5C])[sp].d([m5C])[sp].d([m5C])[sp].[moe](A)p.[moe](T)p.[moe]([m5C])p.[moe]([m5C])[sp].[moe](G)}$$$$ (last 3' nucleoside missing) | 1
RNA1{[moe](T)[sp].[moe](G)p.[moe](G)p.[moe](G)p.[moe](T)p.d(T)[sp].d(A)[sp].d([m5C])[sp].d(T)[sp].d(T)[sp].d(T)[sp].d([m5C])[sp].d([m5C])[sp].d(A)[sp].d(A)[sp].[moe](T)p.[moe](A)p.[moe](G)[sp].[moe](A)}$$$$ (last 3' nucleoside missing) | 5.7
RNA1{[moe](T)[sp].[moe](G)p.[moe](G)p.[moe](T)[sp].d([m5C])[sp].d(A)[sp].d(T)[sp].d([m5C])[sp].d(T)[sp].d([m5C])[sp].d(G)[sp].d(G)[sp].[moe](G)p.[moe](T)p.[moe](A)p.[moe](T)[sp].[moe](A)}$$$$ (last 3' nucleoside missing) | 4.7
RNA1{[moe](T)[sp].[moe](G)p.[moe](G)p.[moe](T)p.[moe](A)p.d(T)[sp].d(T)[sp].d(G)[sp].d(A)[sp].d([m5C])[sp].d(A)[sp].d([m5C])[sp].d([m5C])[sp].d(T)[sp].d([m5C])[sp].[moe]([m5C])p.[moe](A)p.[moe](A)[sp].[moe]([m5C])}$$$$ (last 3' nucleoside missing) | 0.3
RNA1{[moe](T)[sp].[moe](G)p.[moe](G)p.[moe](T)p.[moe]([m5C])[sp].d(A)[sp].d(T)[sp].d([m5C])[sp].d(T)[sp].d([m5C])[sp].d(G)[sp].d(G)[sp].d(G)[sp].[moe](T)p.[moe](A)p.[moe](T)[sp].[moe](A)}$$$$ (last 3' nucleoside missing) | 6.3
RNA1{[moe](T)[sp].[moe](G)p.[moe](G)p.[moe](T)p.[moe]([m5C])p.[moe](A)[sp].d(T)[sp].d([m5C])[sp].d(T)[sp].d([m5C])[sp].d(G)[sp].d(G)[sp].d(G)[sp].d(T)[sp].[moe](A)p.[moe](T)[sp].[moe](A)}$$$$ (last 3' nucleoside missing) | 4.7
RNA1{[moe](T)[sp].[moe](G)p.[moe](G)p.[moe](T)p.[moe]([m5C])p.[moe](A)p.d(T)[sp].d([m5C])[sp].d(T)[sp].d([m5C])[sp].d(G)[sp].d(G)[sp].d(G)[sp].d(T)[sp].d(A)[sp].d(T)[sp].[moe](A)p.[moe](T)[sp].[moe](A)}$$$$ (last 3' nucleoside missing) | 6
RNA1{[moe](T)[sp].[moe](G)p.[moe](G)p.[moe](T)p.[moe]([m5C])p.d(A)[sp].d(T)[sp].d([m5C])[sp].d(T)[sp].d([m5C])[sp].d(G)[sp].d(G)[sp].d(G)[sp].d(T)[sp].d(A)[sp].[moe](T)p.[moe](A)p.[moe](T)[sp].[moe](A)}$$$$ (last 3' nucleoside missing) | 5.2
RNA1{[moe](T)[sp].[moe](G)p.[moe](G)p.[moe](T)p.d([m5C])[sp].d(A)[sp].d(T)[sp].d([m5C])[sp].d(T)[sp].d([m5C])[sp].d(G)[sp].d(G)[sp].d(G)[sp].d(T)[sp].[moe](A)p.[moe](T)p.[moe](A)p.[moe](T)[sp].[moe](A)}$$$$ (last 3' nucleoside missing) | 4
RNA1{[moe](T)[sp].[moe](G)p.[moe](G)p.[moe]([m5C])p.[moe](A)p.d(A)[sp].d(G)[sp].d(T)[sp].d(A)[sp].d(T)[sp].d(G)[sp].d([m5C])[sp].d(T)[sp].d(A)[sp].d(G)[sp].[moe](T)p.[moe]([m5C])p.[moe](A)[sp].[moe]([m5C])}$$$$ (last 3' nucleoside missing) | 2.3
RNA1{[moe](T)[sp].[moe](G)p.[moe](G)p.[moe]([m5C])p.[moe](T)p.d(T)[sp].d(T)[sp].d(A)[sp].d(T)[sp].d(A)[sp].d([m5C])[sp].d(T)[sp].d(T)[sp].d(T)[sp].d(A)[sp].[moe]([m5C])p.[moe]([m5C])p.[moe]([m5C])[sp].[moe](A)}$$$$ (last 3' nucleoside missing) | 0.7
RNA1{[moe](T)[sp].[moe](G)p.[moe](T)p.[moe](A)p.[moe](T)p.d([m5C])[sp].d(A)[sp].d(G)[sp].d(G)[sp].d([m5C])[sp].d(A)[sp].d(A)[sp].d([m5C])[sp].d(A)[sp].d(G)[sp].[moe](A)p.[moe](A)p.[moe](T)[sp].[moe]([m5C])}$$$$ (last 3' nucleoside missing) | 4.7
RNA1{[moe](T)[sp].[moe](G)p.[moe](T)p.[moe](A)p.[moe]([m5C])p.d(A)[sp].d(A)[sp].d(A)[sp].d([m5C])[sp].d(G)[sp].d(G)[sp].d(G)[sp].d([m5C])[sp].d(T)[sp].d(A)[sp].[moe](T)p.[moe](G)p.[moe](T)[sp].[moe](G)}$$$$ (last 3' nucleoside missing) | 7
RNA1{[moe](T)[sp].[moe](G)p.[moe](T)p.[moe](G)[sp].d([m5C])[sp].d(A)[sp].d(T)[sp].d(A)[sp].d([m5C])[sp].d([m5C])[sp].d([m5C])[sp].d(A)[sp].[moe](G)p.[moe](G)p.[moe](G)p.[moe](T)[sp].[moe](A)}$$$$ (last 3' nucleoside missing) | 1
RNA1{[moe](T)[sp].[moe](G)p.[moe](T)p.[moe](G)p.[moe](A)p.d(G)[sp].d(A)[sp].d(T)[sp].d(A)[sp].d(A)[sp].d(T)[sp].d(T)[sp].d([m5C])[sp].d(A)[sp].d(G)[sp].[moe](G)p.[moe](A)p.[moe](G)[sp].[moe](G)}$$$$ (last 3' nucleoside missing) | 5
RNA1{[moe](T)[sp].[moe](G)p.[moe](T)p.[moe](G)p.[moe](G)p.d(G)[sp].d([m5C])[sp].d([m5C])[sp].d(T)[sp].d([m5C])[sp].d(T)[sp].d(A)[sp].d(T)[sp].d(T)[sp].d(A)[sp].[moe](A)p.[moe](G)p.[moe](A)[sp].[moe](T)}$$$$ (last 3' nucleoside missing) | 1
RNA1{[moe](T)[sp].[moe](G)p.[moe](T)p.[moe](G)p.[moe](T)p.[moe](G)p.d(T)[sp].d(T)[sp].d(T)[sp].d(T)[sp].d(T)[sp].d([m5C])[sp].d([m5C])[sp].d(A)[sp].d(T)[sp].d(T)[sp].[moe](T)p.[moe](T)[sp].[moe](T)}$$$$ (last 3' nucleoside missing) | 0
